Results reported in patent publication US5719121A, “Use of balhimycin as production promoter in animals, and production promoter compositions” (Hoechst Aktiengesellschaft, priority 1995, dated 1998).

Test system: broilers
Test: Feeding experiment with balhimycin in broilers (floor management, 35 days): growth and feed utilization
Assay type: in vivo
Conditions: for Feed Intake, compared to the control value of 100% / Feed Utilization, compared to the control value of 100% / Live weight End, compared to the control value of 100% / Live weight Gain, compared to the control value of 100%: control = 100; for Feed Intake / Feed Utilization kg of FI/kg of LW / Live weight End: group mean
Experimental: A feeding experiment with balhimycin was carried out in floor management using […] broilers (80 males and 80 females) which were divided into 5 groups:
1st group: untreated control
2nd group: balhimycin, 15 mg/kg of feed
3rd group: balhimycin, 30 mg/kg of feed
4th group: balhimycin, 45 mg/kg of feed
5th group: balhimycin, 60 mg/kg of feed
The feed had the following composition (Table 1):
The animals were kept in boxes of 40 animals each and were given the feed mixtures for 35 days in accordance with their group assignment.
In Table 2, the first number in each column directed to weight change, feed intake, and feed utilization, indicates the number average for the broilers in each group. The second number indicates the standard deviation of the data. The third number indicates the percent difference of each group as compared to the control value of 100%.
Different letters (a, b, ab, c) in the gain column denote significant differences between the groups (P<0.05). Values having the same letter or letters indicate that there is no significant difference between the groups.

## CNC(CC(C)C)C(=O)NC1C(=O)NC(CC(N)=O)C(=O)NC2C(=O)NC3C(=O)NC(C(=O)NC(C(=O)O)c4cc(O)cc(O)c4-c4cc3ccc4O)C(OC3C[C@](C)(N)C(=O)C(C)O3)c3ccc(c(Cl)c3)Oc3cc2cc(c3OC2O[C@H](CO)C(O)[C@H](O)C2O)Oc2ccc(cc2Cl)C1O (stereo partly shown) [Balhimycin]
Balhimycin 15 mg/kg of feed
  Feed Intake, compared to the control value of 100%: 99.9%
  Feed Utilization, compared to the control value of 100%: 92.0%
  Live weight End, compared to the control value of 100%: 108.1%
  Live weight Gain, compared to the control value of 100%: 108.4%
  Feed Intake: 72.5 g/day
  Feed Utilization kg of FI/kg of LW: 1.62 kg of FI/kg of LW
  Live weight End: 1602.0 g
Balhimycin 30 mg/kg of feed
  Feed Intake, compared to the control value of 100%: 100.6%
  Feed Utilization, compared to the control value of 100%: 93.8%
  Live weight End, compared to the control value of 100%: 110.7%
  Live weight Gain, compared to the control value of 100%: 110.8%
  Feed Intake: 75.3 g/day
  Feed Utilization kg of FI/kg of LW: 1.65 kg of FI/kg of LW
  Live weight End: 1640.0 g
Balhimycin 45 mg/kg of feed
  Feed Intake, compared to the control value of 100%: 100.6%
  Feed Utilization, compared to the control value of 100%: 92.0%
  Live weight End, compared to the control value of 100%: 109.1%
  Live weight Gain, compared to the control value of 100%: 109.3%
  Feed Intake: 73.0 g/day
  Feed Utilization kg of FI/kg of LW: 1.62 kg of FI/kg of LW
  Live weight End: 1617.0 g
Balhimycin 60 mg/kg of feed
  Feed Intake, compared to the control value of 100%: 100.7%
  Feed Utilization, compared to the control value of 100%: 93.2%
  Live weight End, compared to the control value of 100%: 108.0%
  Live weight Gain, compared to the control value of 100%: 108.1%
  Feed Intake: 73.1 g/day
  Feed Utilization kg of FI/kg of LW: 1.64 kg of FI/kg of LW
  Live weight End: 1600.0 g
